The record followed here is US10577378B2, “EIF4A-inhibiting compounds and methods related thereto” (eFFECTOR Therapeutics, Inc., priority 2015, dated 2020).

The structures appear in SMILES notation. pIC50: −log10 of the molar value.

In the test the test system is MDA-MB-231 human breast cancer cells. Nature of the test: Cell proliferation assay (CellTiter-Glo, 72 hours treatment). It counts as cell-based. The conditions noted are these: Homo sapiens; MDA-MB-231 cells, 72 hours at 37° C., CellTiter-Glo; read-out: MDA-MB-231 cell proliferation assay (IC50). An outline of the steps:
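MDA-MB-231 cells seeded at 2,500 cells/well, treated next day with compound or DMSO vehicle for 72 h at 37 °C. Proliferation read by CellTiter-Glo; IC50 from sigmoidal non-linear regression, binned as +++ (<100 nM), ++ (100–1000 nM), + (>1000 nM).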
Background: Cellular ATP, detected with luciferase, serves as a proxy for viable cell number.
In the case of `O=S(=O)(Cc1ccccc1)[C@H]1[C@@H](O)[C@@]2(O)c3ncc(Cl)cc3O[C@@]2(c2ccc(Br)cc2)[C@@H]1c1ccccc1` (racemic) [93F, Rac-(5aR,6S,7R,8S,8aS)-7-(benzylsulfonyl)-5a-(4-bromophenyl)-3-chloro-6-phenyl-5a,6,7,8-tetrahydro-8aH-cyclopenta[4,5]furo[3,2-b]pyridine-8,8a-diol], the pIC50 is below 6.00.

Take `N#Cc1ccc([C@@]23Oc4cc(Cl)cnc4[C@]2(O)[C@H](O)[C@H](S(=O)(=O)Cc2ccccc2)[C@H]3c2ccccc2)cc1` (racemic) [94F, Rac-4-((5aR,6S,7R,8S,8aS)-7-(benzylsulfonyl)-3-chloro-8,8a-dihydroxy-6-phenyl-6,7,8,8a-tetrahydro-5aH-cyclopenta[4,5]furo[3,2-b]pyridin-5a-yl)benzonitrile]: the pIC50 was below 6.00.

Consider `CN(C)C(=O)[C@H]1[C@@H](O)[C@@]2(O)c3c(C#N)cncc3O[C@@]2(c2ccc(C#N)cc2)[C@@H]1c1ccccc1` (racemic) [96F, Rac-(4bS,5R,6R,7S,7aR)-4-cyano-7a-(4-cyanophenyl)-4b,5-dihydroxy-N,N-dimethyl-7-phenyl-4b,6,7,7a-tetrahydro-5H-cyclopenta[4,5]furo[2,3-c]pyridine-6-carboxamide], for which the pIC50 is below 6.00.

For the compound `CN(C)C(=O)[C@H]1[C@@H](O)[C@@]2(O)c3c(Cl)cncc3O[C@@]2(c2ccc(Br)cc2)[C@@H]1c1ccccc1` (racemic) [97F, Rac-(4bS,5R,6R,7S,7aR)-7a-(4-bromophenyl)-4-chloro-4b,5-dihydroxy-N,N-dimethyl-7-phenyl-4b,6,7,7a-tetrahydro-5H-cyclopenta[4,5]furo[2,3-c]pyridine-6-carboxamide], the pIC50 is 6.00 to 7.00.

Consider `COc1ccc(Cn2cc3c(n2)[C@]2(O)[C@H](O)[C@H](C(=O)N(C)C)[C@@H](c4ccccc4)[C@]2(c2ccc(C#N)cc2)O3)cc1` (racemic) [99F, Rac-(4aR,5S,6R,7R,7aS)-4a-(4-cyanophenyl)-7,7a-dihydroxy-2-(4-methoxybenzyl)-N,N-dimethyl-5-phenyl-2,4a,5,6,7,7a-hexahydrocyclopenta[4,5]furo[3,2-c]pyrazole-6-carboxamide], for which the pIC50 is below 6.00.

For `CN(C)C(=O)[C@H]1[C@@H](O)[C@@]2(O)c3n[nH]cc3O[C@@]2(c2ccc(C#N)cc2)[C@@H]1c1ccccc1` (racemic) [100F, rac-(4aR,5S,6R,7R,7aS)-4a-(4-cyanophenyl)-7,7a-dihydroxy-N,N-dimethyl-5-phenyl-2,4a,5,6,7,7a-hexahydrocyclopenta[4,5]furo[3,2-c]pyrazole-6-carboxamide], the pIC50 is below 6.00.

In the case of `COc1cncc2c1[C@]1(O)[C@H](O)[C@H](S(C)(=O)=O)[C@@H](c3ccccc3)[C@]1(c1ccc(Br)cc1)O2` (racemic) [101F, rac-(4bS,5S,6R,7S,7aR)-7a-(4-bromophenyl)-4-methoxy-6-(methylsulfonyl)-7-phenyl-5,6,7,7a-tetrahydro-4bH-cyclopenta[4,5]furo[2,3-c]pyridine-4b,5-diol], the pIC50 is 6.00 to 7.00.

With `COc1cncc2c1[C@]1(O)[C@H](O)[C@H](C(=O)N(C)CC(F)F)[C@@H](c3ccccc3)[C@]1(c1ccc(Br)cc1)O2` (racemic) [111F, Rac-(4bS,5R,6R,7S,7aR)-7a-(4-bromophenyl)-N-(2,2-difluoroethyl)-4b,5-dihydroxy-4-methoxy-N-methyl-7-phenyl-4b,6,7,7a-tetrahydro-5H-cyclopenta[4,5]furo[2,3-c]pyridine-6-carboxamide], the pIC50 was above 7.00.

As to `COc1cncc2c1[C@]1(O)[C@H](O)[C@H](C(=O)N3[C@@H]4CCC[C@H]3CC4)[C@@H](c3ccccc3)[C@]1(c1ccc(Br)cc1)O2` (racemic) [114F, Rac-((1R,5S)-8-azabicyclo[3.2.1]octan-8-yl)((4bS,5R,6R,7S,7aR)-7a-(4-bromophenyl)-4b,5-dihydroxy-4-methoxy-7-phenyl-4b,6,7,7a-tetrahydro-5H-cyclopenta[4,5]furo[2,3-c]pyridin-6-yl)methanone], the pIC50 was above 7.00.

For the compound `COc1cncc2c1[C@]1(O)[C@H](O)[C@H](C(=O)NCC(F)F)[C@@H](c3ccccc3)[C@]1(c1ccc(Br)cc1)O2` (racemic) [116F, Rac-(4bS,5R,6R,7S,7aR)-7a-(4-bromophenyl)-N-(2,2-difluoroethyl)-4b,5-dihydroxy-4-methoxy-7-phenyl-4b,6,7,7a-tetrahydro-5H-cyclopenta[4,5]furo[2,3-c]pyridine-6-carboxamide], the pIC50 is above 7.00.

`COc1cncc2c1[C@]1(O)[C@H](O)[C@H](S(=O)(=O)CC(F)(F)F)[C@@H](c3ccccc3)[C@]1(c1ccc(Br)cc1)O2` (racemic) [117F, Rac-(4bS,5S,6R,7S,7aR)-7a-(4-bromophenyl)-4-methoxy-7-phenyl-6-((2,2,2-trifluoroethyl)sulfonyl)-5,6,7,7a-tetrahydro-4bH-cyclopenta[4,5]furo[2,3-c]pyridine-4b,5-diol]: the pIC50 is below 6.00.

As to `COc1cncc2c1[C@]1(O)[C@H](O)[C@H](S(=O)(=O)c3ccccc3)[C@@H](c3ccccc3)[C@]1(c1ccc(C#N)cc1)O2` (racemic) [118F, Rac-4-((4bS,5S,6R,7S,7aR)-4b,5-dihydroxy-4-methoxy-7-phenyl-6-(phenylsulfonyl)-4b,5,6,7-tetrahydro-7aH-cyclopenta[4,5]furo[2,3-c]pyridin-7a-yl)benzonitrile], the pIC50 is 6.00 to 7.00.

As to `COc1cncc2c1[C@]1(O)[C@H](O)[C@H](S(=O)(=O)c3ccccn3)[C@@H](c3ccccc3)[C@]1(c1ccc(C#N)cc1)O2` (racemic) [119F, Rac-4-((4bS,5S,6R,7S,7aR)-4b,5-dihydroxy-4-methoxy-7-phenyl-6-(pyridin-2-ylsulfonyl)-4b,5,6,7-tetrahydro-7aH-cyclopenta[4,5]furo[2,3-c]pyridin-7a-yl)benzonitrile], the pIC50 is 6.00 to 7.00.

In the case of `COc1cncc2c1[C@]1(O)[C@H](O)[C@H](C(=O)N3CC(F)(F)C3)[C@@H](c3ccccc3)[C@]1(c1ccc(Br)cc1)O2` (racemic) [121F, Rac-((4bS,5R,6R,7S,7aR)-7a-(4-bromophenyl)-4b,5-dihydroxy-4-methoxy-7-phenyl-4b,6,7,7a-tetrahydro-5H-cyclopenta[4,5]furo[2,3-c]pyridin-6-yl)(3,3-difluoroazetidin-1-yl)methanone], the pIC50 was 6.00 to 7.00.

For the compound `CN(Cc1ccccc1)S(=O)(=O)[C@H]1[C@@H](O)[C@@]2(O)c3ncc(Cl)cc3O[C@@]2(c2ccc(Br)cc2)[C@@H]1c1ccccc1` (racemic) [123F, rac-(5aR,6S,7R,8S,8aS)—N-benzyl-5a-(4-bromophenyl)-3-chloro-8,8a-dihydroxy-N-methyl-6-phenyl-5a,7,8,8a-tetrahydro-6H-cyclopenta[4,5]furo[3,2-b]pyridine-7-sulfonamide], the pIC50 is 6.00 to 7.00.

For `CNS(=O)(=O)[C@H]1[C@@H](O)[C@@]2(O)c3ncc(Cl)cc3O[C@@]2(c2ccc(Br)cc2)[C@@H]1c1ccccc1` (racemic) [124F, Rac-(5aR,6S,7R,8S,8aS)-5a-(4-bromophenyl)-3-chloro-8,8a-dihydroxy-N-methyl-6-phenyl-5a,7,8,8a-tetrahydro-6H-cyclopenta[4,5]furo[3,2-b]pyridine-7-sulfonamide], the pIC50 is 6.00 to 7.00.

`CNS(=O)(=O)[C@H]1[C@@H](O)[C@@]2(O)c3ncc(Cl)cc3O[C@@]2(c2ccc(C#N)cc2)[C@@H]1c1ccccc1` (racemic) [125F, rac-(5aR,6S,7R,8S,8aS)-3-chloro-5a-(4-cyanophenyl)-8,8a-dihydroxy-N-methyl-6-phenyl-5a,7,8,8a-tetrahydro-6H-cyclopenta[4,5]furo[3,2-b]pyridine-7-sulfonamide]: the pIC50 is below 6.00.

As for `O[C@@H]1C[C@@H](c2ccccc2)[C@]2(c3ccc(Br)cc3)Oc3cc(Cl)cnc3[C@]12O` (racemic) [127F, Rac-(5aR,6S,8R,8aS)-5a-(4-bromophenyl)-3-chloro-6-phenyl-5a,6,7,8-tetrahydro-8aH-cyclopenta[4,5]furo[3,2-b]pyridine-8,8a-diol], the pIC50 is 6.00 to 7.00.

Take `N#Cc1ccc([C@@]23Oc4cc(Cl)cnc4[C@]2(O)[C@H](O)C[C@H]3c2ccccc2)cc1` (racemic) [128F, Rac-4-((5aR,6S,8R,8aS)-3-chloro-8,8a-dihydroxy-6-phenyl-6,7,8,8a-tetrahydro-5aH-cyclopenta[4,5]furo[3,2-b]pyridin-5a-yl)benzonitrile]: the pIC50 is 6.00 to 7.00.

With `O=C1C[C@@H](c2ccccc2)[C@]2(c3ccc(Br)cc3)Oc3cc(Cl)cnc3[C@]12O` (racemic) [129F, Rac-(5aR,6S,8aR)-5a-(4-bromophenyl)-3-chloro-8a-hydroxy-6-phenyl-5a,6,7,8a-tetrahydro-8H-cyclopenta[4,5]furo[3,2-b]pyridin-8-one], the pIC50 was below 6.00.

`O[C@H]1C[C@@H](c2ccccc2)[C@]2(c3ccc(Br)cc3)Oc3cc(Cl)cnc3[C@]12O` (racemic) [130F, Rac-(5aR,6S,8S,8aS)-5a-(4-bromophenyl)-3-chloro-6-phenyl-5a,6,7,8-tetrahydro-8aH-cyclopenta[4,5]furo[3,2-b]pyridine-8,8a-diol]: the pIC50 was below 6.00.

In the case of `N#Cc1ccc([C@@]23Oc4cc(Cl)cnc4[C@]2(O)[C@@H](O)C[C@H]3c2ccccc2)cc1` (racemic) [131F, Rac-4-((5aR,6S,8S,8aS)-3-chloro-8,8a-dihydroxy-6-phenyl-6,7,8,8a-tetrahydro-5aH-cyclopenta[4,5]furo[3,2-b]pyridin-5a-yl)benzonitrile], the pIC50 was below 6.00.

For `Cc1ccc(S(=O)(=O)NN=C2C[C@@H](c3ccccc3)[C@]3(c4ccc(Br)cc4)Oc4cc(Cl)cnc4[C@]23O)cc1` (racemic) [132F, Rac-N′-((5aR,6S,8aS)-5a-(4-bromophenyl)-3-chloro-8a-hydroxy-6-phenyl-5a,6,7,8a-tetrahydro-8H-cyclopenta[4,5]furo[3,2-b]pyridin-8-ylidene)-4-methylbenzenesulfonohydrazide], the pIC50 is below 6.00.
